Experimental data: ChEMBL document CHEMBL4477227, “Synthesis and antibacterial evaluation of macrocyclic diarylheptanoid derivatives” (Bioorg Med Chem Lett, 2016)
≈ marks a conversion by molar mass, not a printed value.

What was measured:
[1] = system: Mycobacterium tuberculosis; experiment: Antitubercular activity against Mycobacterium tuberculosis H37Rv by microbroth dilution method; type: functional; conditions: Mycobacterium tuberculosis, H37Rv; read-out: MIC
Bacillus anthracis = experiment: Antibacterial activity against Bacillus anthracis Sterne 34F2 by microbroth dilution method; type: functional; conditions: Bacillus anthracis, Sterne 34F2; read-out: MIC
Enterococcus faecalis = experiment: Antibacterial activity against Enterococcus faecalis ATCC 33186 by microbroth dilution method; type: functional; conditions: Enterococcus faecalis, ATCC 33186; read-out: MIC
Staphylococcus aureus [2] = experiment: Antibacterial activity against methicillin-sensitive Staphylococcus aureus ATCC 29213 by microbroth dilution method; type: functional; conditions: Staphylococcus aureus, ATCC 29213; read-out: MIC
Staphylococcus aureus [3] = experiment: Antibacterial activity against methicillin-resistant Staphylococcus aureus NRS70 by microbroth dilution method; type: functional; conditions: Staphylococcus aureus, NRS70; read-out: MIC
Streptococcus pyogenes = experiment: Antibacterial activity against Streptococcus pyogenes ATCC 700294 by microbroth dilution method; type: functional; conditions: Streptococcus pyogenes, ATCC 700294; read-out: MIC
Streptococcus pneumoniae = experiment: Antibacterial activity against Streptococcus pneumoniae R6 by microbroth dilution method; type: functional; conditions: Streptococcus pneumoniae, R6; read-out: MIC
Bacillus subtilis = experiment: Antibacterial activity against Bacillus subtilis ATCC 23857 by microbroth dilution method; type: functional; conditions: Bacillus subtilis, ATCC 23857; read-out: MIC
Acinetobacter baumannii = experiment: Antibacterial activity against Acinetobacter baumannii ATCC 19606 by microbroth dilution method; type: functional, ATCC 19606 = CIP 70.34 = JCM 6841; conditions: Acinetobacter baumannii, ATCC 19606 = CIP 70.34 = JCM 6841; read-out: MIC
Escherichia coli [4] = experiment: Antibacterial activity against Escherichia coli K-12 by microbroth dilution method; type: functional
Escherichia coli [5] = experiment: Antibacterial activity against Escherichia coli harboring TolC deletion mutant by microbroth dilution method; type: functional; conditions: Escherichia coli; read-out: MIC
Burkholderia cepacia = experiment: Antibacterial activity against Burkholderia cepacia ATCC 25416 by microbroth dilution method; type: functional
Klebsiella pneumoniae = experiment: Antibacterial activity against Klebsiella pneumoniae ATCC 33495 by microbroth dilution method; type: functional
Proteus mirabilis = experiment: Antibacterial activity against Proteus mirabilis ATCC 25933 by microbroth dilution method; type: functional
Proteus vulgaris = experiment: Antibacterial activity against Proteus vulgaris ATCC 33420 by microbroth dilution method; type: functional
Pseudomonas aeruginosa = experiment: Antibacterial activity against Pseudomonas aeruginosa PAO1 by microbroth dilution method; type: functional
Vero = experiment: Cytotoxicity against African green monkey Vero cells assessed as reduction in cell viability after 72 hrs by CellTiterGlo assay; type: cell-based; conditions: Chlorocebus sabaeus
J774.1 = experiment: Inhibition of LPS-induced NO production in mouse J774.1 cells after 24 by Griess assay; type: functional, cell-based

## COc1ccc2cc1Oc1cc(ccc1OC)CCC(NCCc1ccc(Br)cc1)CCCC2 (stereo unspecified)
[1]
  MIC: 25 mg/L (≈ 47.7 µM)
Bacillus anthracis
  MIC: 12.5 mg/L (≈ 23.8 µM)
Enterococcus faecalis
  MIC: 12.5 mg/L (≈ 23.8 µM)
Staphylococcus aureus [2]
  MIC: 12.5 mg/L (≈ 23.8 µM)
Staphylococcus aureus [3]
  MIC: 12.5 mg/L (≈ 23.8 µM)
Streptococcus pyogenes
  MIC: 50 mg/L (≈ 95.3 µM)
Streptococcus pneumoniae
  MIC: 50 mg/L (≈ 95.3 µM)
Bacillus subtilis
  MIC: 6.25 mg/L (≈ 11.9 µM)
Acinetobacter baumannii
  MIC: 50 mg/L (≈ 95.3 µM)
Escherichia coli [4]
  MIC: > 100 mg/L
Escherichia coli [5]
  MIC: 12.5 mg/L (≈ 23.8 µM)
Burkholderia cepacia
  MIC: > 100 mg/L
Klebsiella pneumoniae
  MIC: > 100 mg/L
Proteus mirabilis
  MIC: > 100 mg/L
Proteus vulgaris
  MIC: > 100 mg/L
Pseudomonas aeruginosa
  MIC: > 100 mg/L
Vero
  IC50: 6.9 mg/L (≈ 13.2 µM)

## Oc1ccc2cc1Oc1cc(ccc1O)CCC(NCCc1ccccc1)CCCC2 (stereo unspecified)
[1]
  MIC: 25 mg/L (≈ 59.9 µM)
Bacillus anthracis
  MIC: 50 mg/L (≈ 120 µM)
Enterococcus faecalis
  MIC: 50 mg/L (≈ 120 µM)
Staphylococcus aureus [2]
  MIC: > 100 mg/L
Staphylococcus aureus [3]
  MIC: 50 mg/L (≈ 120 µM)
Streptococcus pyogenes
  MIC: 50 mg/L (≈ 120 µM)
Streptococcus pneumoniae
  MIC: 50 mg/L (≈ 120 µM)
Bacillus subtilis
  MIC: 25 mg/L (≈ 59.9 µM)
Acinetobacter baumannii
  MIC: 50 mg/L (≈ 120 µM)
Escherichia coli [4]
  MIC: 100 mg/L (≈ 239 µM)
Escherichia coli [5]
  MIC: 25 mg/L (≈ 59.9 µM)
Burkholderia cepacia
  MIC: > 100 mg/L
Klebsiella pneumoniae
  MIC: > 100 mg/L
Proteus mirabilis
  MIC: > 100 mg/L
Proteus vulgaris
  MIC: > 100 mg/L
Pseudomonas aeruginosa
  MIC: > 100 mg/L
Vero
  IC50: 11.1 mg/L (≈ 26.6 µM)

## COc1ccc2cc1Oc1cc(ccc1OC)CCC(NCCc1ccc(F)cc1)CCCC2 (stereo unspecified)
[1]
  MIC: 25 mg/L (≈ 53.9 µM)
Bacillus anthracis
  MIC: 25 mg/L (≈ 53.9 µM)
Enterococcus faecalis
  MIC: 25 mg/L (≈ 53.9 µM)
Staphylococcus aureus [2]
  MIC: 25 mg/L (≈ 53.9 µM)
Staphylococcus aureus [3]
  MIC: 12.5 mg/L (≈ 27 µM)
Streptococcus pyogenes
  MIC: 25 mg/L (≈ 53.9 µM)
Streptococcus pneumoniae
  MIC: 50 mg/L (≈ 108 µM)
Bacillus subtilis
  MIC: 12.5 mg/L (≈ 27 µM)
Acinetobacter baumannii
  MIC: 25 mg/L (≈ 53.9 µM)
Escherichia coli [4]
  MIC: > 100 mg/L
Escherichia coli [5]
  MIC: 12.5 mg/L (≈ 27 µM)
Burkholderia cepacia
  MIC: > 100 mg/L
Klebsiella pneumoniae
  MIC: > 100 mg/L
Proteus mirabilis
  MIC: > 100 mg/L
Proteus vulgaris
  MIC: > 100 mg/L
Pseudomonas aeruginosa
  MIC: > 100 mg/L
Vero
  IC50: 7.3 mg/L (≈ 15.7 µM)

## COc1ccc2cc1Oc1cc(ccc1OC)CCC(NCCc1ccc3ccccc3c1)CCCC2 (stereo unspecified)
[1]
  MIC: 25 mg/L (≈ 50.4 µM)
Bacillus anthracis
  MIC: 12.5 mg/L (≈ 25.2 µM)
Enterococcus faecalis
  MIC: 12.5 mg/L (≈ 25.2 µM)
Staphylococcus aureus [2]
  MIC: 12.5 mg/L (≈ 25.2 µM)
Staphylococcus aureus [3]
  MIC: 6.25 mg/L (≈ 12.6 µM)
Streptococcus pyogenes
  MIC: 12.5 mg/L (≈ 25.2 µM)
Streptococcus pneumoniae
  MIC: 25 mg/L (≈ 50.4 µM)
Bacillus subtilis
  MIC: 6.25 mg/L (≈ 12.6 µM)
Acinetobacter baumannii
  MIC: > 100 mg/L
Escherichia coli [4]
  MIC: > 100 mg/L
Escherichia coli [5]
  MIC: 6.25 mg/L (≈ 12.6 µM)
Burkholderia cepacia
  MIC: > 100 mg/L
Klebsiella pneumoniae
  MIC: > 100 mg/L
Proteus mirabilis
  MIC: > 100 mg/L
Proteus vulgaris
  MIC: > 100 mg/L
Pseudomonas aeruginosa
  MIC: > 100 mg/L
Vero
  IC50: 7 mg/L (≈ 14.1 µM)

## COc1ccc2cc1Oc1cc(ccc1OC)CCC(NCCc1ccc(Cl)cc1)CCCC2 (stereo unspecified)
[1]
  MIC: 25 mg/L (≈ 52.1 µM)
Bacillus anthracis
  MIC: 12.5 mg/L (≈ 26 µM)
Enterococcus faecalis
  MIC: 12.5 mg/L (≈ 26 µM)
Staphylococcus aureus [2]
  MIC: 12.5 mg/L (≈ 26 µM)
Staphylococcus aureus [3]
  MIC: 12.5 mg/L (≈ 26 µM)
Streptococcus pyogenes
  MIC: 12.5 mg/L (≈ 26 µM)
Streptococcus pneumoniae
  MIC: 25 mg/L (≈ 52.1 µM)
Bacillus subtilis
  MIC: 6.25 mg/L (≈ 13 µM)
Acinetobacter baumannii
  MIC: 25 mg/L (≈ 52.1 µM)
Escherichia coli [4]
  MIC: > 100 mg/L
Escherichia coli [5]
  MIC: 6.25 mg/L (≈ 13 µM)
Burkholderia cepacia
  MIC: > 100 mg/L
Klebsiella pneumoniae
  MIC: > 100 mg/L
Proteus mirabilis
  MIC: > 100 mg/L
Proteus vulgaris
  MIC: > 100 mg/L
Pseudomonas aeruginosa
  MIC: > 100 mg/L
Vero
  IC50: 6.8 mg/L (≈ 14.2 µM)

## COc1ccc2cc1Oc1cccc(c1)CCC(NCCc1ccc(F)cc1)CC2 (stereo unspecified)
[1]
  MIC: 25 mg/L (≈ 61.7 µM)
Bacillus anthracis
  MIC: 50 mg/L (≈ 123 µM)
Enterococcus faecalis
  MIC: 50 mg/L (≈ 123 µM)
Staphylococcus aureus [2]
  MIC: 25 mg/L (≈ 61.7 µM)
Staphylococcus aureus [3]
  MIC: 25 mg/L (≈ 61.7 µM)
Streptococcus pyogenes
  MIC: 50 mg/L (≈ 123 µM)
Streptococcus pneumoniae
  MIC: 50 mg/L (≈ 123 µM)
Bacillus subtilis
  MIC: 25 mg/L (≈ 61.7 µM)
Acinetobacter baumannii
  MIC: 50 mg/L (≈ 123 µM)
Escherichia coli [4]
  MIC: > 100 mg/L
Escherichia coli [5]
  MIC: 12.5 mg/L (≈ 30.8 µM)
Burkholderia cepacia
  MIC: > 100 mg/L
Klebsiella pneumoniae
  MIC: > 100 mg/L
Proteus mirabilis
  MIC: > 100 mg/L
Proteus vulgaris
  MIC: > 100 mg/L
Pseudomonas aeruginosa
  MIC: > 100 mg/L

## COc1ccc2cc1Oc1cc(ccc1OC)CCC(NC/C=C(\C)CCC=C(C)C)CCCC2 (stereo unspecified)
[1]
  MIC: 12.5 mg/L (≈ 26.2 µM)
Bacillus anthracis
  MIC: 12.5 mg/L (≈ 26.2 µM)
Enterococcus faecalis
  MIC: 12.5 mg/L (≈ 26.2 µM)
Staphylococcus aureus [2]
  MIC: 12.5 mg/L (≈ 26.2 µM)
Staphylococcus aureus [3]
  MIC: 6.25 mg/L (≈ 13.1 µM)
Streptococcus pyogenes
  MIC: 25 mg/L (≈ 52.3 µM)
Streptococcus pneumoniae
  MIC: 50 mg/L (≈ 105 µM)
Bacillus subtilis
  MIC: 3.12 mg/L (≈ 6.54 µM)
Acinetobacter baumannii
  MIC: 25 mg/L (≈ 52.3 µM)
Escherichia coli [4]
  MIC: 50 mg/L (≈ 105 µM)
Escherichia coli [5]
  MIC: 6.25 mg/L (≈ 13.1 µM)
Burkholderia cepacia
  MIC: > 100 mg/L
Klebsiella pneumoniae
  MIC: > 100 mg/L
Proteus mirabilis
  MIC: > 100 mg/L
Proteus vulgaris
  MIC: > 100 mg/L
Pseudomonas aeruginosa
  MIC: > 100 mg/L
Vero
  IC50: 5.6 mg/L (≈ 11.7 µM)

## COc1ccc2cc1Oc1ccc(cc1)CCC(NCCc1ccc(F)cc1)CCCC2 (stereo unspecified)
[1]
  MIC: 12.5 mg/L (≈ 28.8 µM)
Bacillus anthracis
  MIC: 12.5 mg/L (≈ 28.8 µM)
Enterococcus faecalis
  MIC: 12.5 mg/L (≈ 28.8 µM)
Staphylococcus aureus [2]
  MIC: 12.5 mg/L (≈ 28.8 µM)
Staphylococcus aureus [3]
  MIC: 6.25 mg/L (≈ 14.4 µM)
Streptococcus pyogenes
  MIC: 25 mg/L (≈ 57.7 µM)
Streptococcus pneumoniae
  MIC: 50 mg/L (≈ 115 µM)
Bacillus subtilis
  MIC: 6.25 mg/L (≈ 14.4 µM)
Acinetobacter baumannii
  MIC: 50 mg/L (≈ 115 µM)
Escherichia coli [4]
  MIC: > 100 mg/L
Escherichia coli [5]
  MIC: 6.25 mg/L (≈ 14.4 µM)
Burkholderia cepacia
  MIC: > 100 mg/L
Klebsiella pneumoniae
  MIC: > 100 mg/L
Proteus mirabilis
  MIC: > 100 mg/L
Proteus vulgaris
  MIC: > 100 mg/L
Pseudomonas aeruginosa
  MIC: > 100 mg/L
Vero
  IC50: 3.7 mg/L (≈ 8.53 µM)

## O=C1CCCCc2ccc(OC(=O)c3ccccc3)c(c2)Oc2ccc(cc2)CC1
J774.1
  IC50: 13 µM
